± gives the expanded uncertainty stated by the source.
Columns and labels:
[1] = 101.33 kPa, Liquid; for mass density: Vibrating tube method; for speed of sound: Pulse-echo method
[2] = molar heat capacity at constant pressure; settings: 101.33 kPa, Liquid, Small sample (50 mg) DSC

Row | mass density ([1]; 288.15 K) [kg/m3] | mass density ([1]; 293.15 K) [kg/m3] | speed of sound ([1]; 298.15 K) [m/s] | mass density ([1]; 298.15 K) [kg/m3] | mass density ([1]; 308.15 K) [kg/m3] | molar heat capacity at constant pressure ([2]; 288.15 K) [J/K/mol] | molar heat capacity at constant pressure ([2]; 298.15 K) [J/K/mol] | molar heat capacity at constant pressure ([2]; 308.15 K) [J/K/mol] | Structure (SMILES)
1 | 1076.56 ± 0.55 | 1070.02 ± 0.55 | 1197.1 ± 1.6 | 1063.42 ± 0.55 | 1050.11 ± 0.54 | 164.03 ± 3.3 | 165.02 ± 3.3 | 166.3 ± 3.3 | COC(=O)OC [dimethyl carbonate]
2 | 721.66 ± 0.41 | 717.75 ± 0.41 | 1206.3 ± 1.6 | 713.85 ± 0.41 | 706.05 ± 0.41 | 280.13 ± 5.6 | 284.23 ± 5.7 | 288.8 ± 5.8 | CCCCCCCCC [nonane]
3 | 706.54 ± 0.26 | 702.53 ± 0.26 | 1172.1 ± 1.3 | 698.5 ± 0.27 | 690.34 ± 0.27 | 250.12 ± 5 | 253.94 ± 5.1 | 258.03 ± 5.2 | CCCCCCCC [octane]
